One data set relates to Y79 cells. Description: Response of cultured retinoblastoma cells to drugs, proportion of viable cells (Y79). It is filed as cell-based, human. The following applies: 8 hours exposure, assayed 3 days later. The source says: (§1) Cell Culture. Y79 and Weri1 cells were obtained from the American Type Culture Collection (Manassas, Va.) and maintained in culture in RPMI medium with 10% FCS (McFall, R. C. et al., “Characterization of a new continuous cell line derived from a human retinoblastoma”, Cancer Res 37: 1003-10 (1977)). Stable lines expressing GFP were generated by transfecting pTET-1 (M.A.D. unpublished) into Y79 and Weril cells by using TransFast (Promega, Madison, Wis.); clones were isolated in the presence of hygromycin. To measure live cells, 0.5 ug/ml calcein was used; to measure dead cells, 4 uM ethidium bromide was used.
(§2) Viable Cell Calculation Following Drug Treatment. […] The proportion of cells that had initiated apoptosis (T) was determined by a TUNEL assay.
(§3) Response of Cultured Retinoblastoma Cells to Chemotherapeutic Drugs. […] For all of the cell culture studies, retinoblastoma cells were exposed to drugs at a cell density corresponding to their optimal proliferation and cell survival. The cell number, proportion of metabolically active cells, and proportion of apoptotic cells were combined to generate the proportion of viable cells (see Materials and Methods for calculations). The proportion of dividing cells was estimated by labeling the cultures with BrdU for 1 hour. Initially, cells were exposed to TPT, CBP, or VCR for 8 hours at concentrations ranging from 1 nM to 200 uM, and the cultures were assayed 3 days later.

For a further data set, the system named is Weril cells. The data set can be described thus: Response of cultured retinoblastoma cells to drugs, proportion of viable cells (Weri1). Format: cell-based, human. The following applies: 8 hours exposure, assayed 3 days later.
Source text: as §1, §2, §3

Data set [1] relates to Y79 and Weril retinoblastoma cells. The data set can be described thus: Combination, time course, FACS and DNA-content studies in cultured retinoblastoma cells. It is filed as cell-based, human.
Source text: as §1
Immunolabeling and TUNEL and BrdU Assays. Y79 and Weri1 retinoblastoma cells were immunolabeled as described previously for dissociated mouse retinae (Dyer, M. A. & Cepko, C. L., “p27Kip1 and p57Kip2 regulate proliferation in distinct retinal progenitor cell population”, J. of Neurosci 21: 4259-71 (2001); Zhu, C. C. et al., “Six2-mediated auto repression and eye development requires its interaction with members of the Groucho-related family of co-repressors”, Development 129: 2835-49 (2002); Dyer, M. A. & Cepko, C. L., “p57(Kip2) regulates progenitor cell proliferationand amacrine intemeuron development in the mouse retina”, Development 127: 3593-605 (2000)). For in vivo studies, BrdU (100 mg/kg body weight) was administered via tail vein injection. BrdU and TUNEL assays were carried out as described previously (Dyer, M. A. et. al., id, Zhu, C. C. et. al., id; Dyer, M. A. et. al., id). Detailed protocols are available at http://www.stjude.org/dyer.
Fluorescent-Activated Cell Sorting. DNA content was analyzed by dissociating tumors with trypsin (Dyer, M. A. et. al., id; Zhu, C. C. et. al., id; Dyer, M. A. et. al., id) and sorting cells by fluorescent-activated cell sorting (FACS). Cells were washed with PBS, and resuspended in a solution containing 0.05 mg/ml propidium iodide, 0.1% sodium citrate and, 0.1% Triton-X100. Samples were then treated with RNase, filtered through a 40-um nylon mesh, and analyzed on a FACScan (Beckton-Dickson, Franklin Lakes, N.J.).
as §2, §3
Following treatment, RNA was isolated and microarray hybridizations were carried out using the human H1 cDNA microarray (see Materials and Methods).
In these preliminary studies, we included an 8-h drug exposure, because that is the maximum period of drug exposure for children receiving chemotherapy. However, the time that tumor cells are exposed in situ is probably considerably shorter, so we performed a time course experiment to determine the minimum duration of exposure required for the full effect on retinoblastoma cell survival and proliferation.

The subject of a further data set is Y79 and Weril cells. Description: Microarray gene expression response of retinoblastoma cells to drugs. Format: cell-based, human. The following applies: microarray analysis after treatment. The protocol:
Microarray Hybridization. The H1 human cDNA microarray was printed at the Hartwell Center for Bioinformatics & Biotechnology at St. Jude Children's Research Hospital. The gene list is available at http://www.ncbi.nlm.nih.gov/geo/ (GEO Accession: GLP345). RNA was isolated from approximately 20×10^6 cells in triplicate for each treatment using Trizol (Invitrogen, Carlsbad, Calif.), and 10 ug total RNA underwent one round of linear amplification using the RiboAmp System (Arcturus Applied Genomics, Carlsbad, Calif.) to yield 100 ug of RNA. The RNA was indirectly labeled using aa-dUTP and conjugated with Cy3 and Cy5. Data were then filtered (see http://www.ncbi.nlm.nih.gov/geo/; GLP345 for details), and cluster analysis was performed.
Following treatment, RNA was isolated and microarray hybridizations were carried out using the human H1 cDNA microarray (see Materials and Methods). […] Using the LD50 of TPT, we tested the combination of TPT and CBP and that of TPT and VCR. […] This effect was additive.
Microarray analysis provided even more information about the response of retinoblastoma cells to chemotherapeutic drugs. […] VCR treatment also altered the expression of a different cohort of genes in comparison to TPT treatment. […]

The next data set is described as follows: in vivo. The conditions noted are these: for Kp: rat, in vivo, iv. The protocol: Pharmacology. Two-week-old rats were treated with TPT (Hycamtin; GlaxoSmithKline, Research Triangle Park, N.C.) at a maximum tolerated dose (MTD) of 2 mg/kg body weight, CBP (Paraplatin; Bristol-Myers Squibb, New York, N.Y.) at an MTD of 70 mg/kg, and VCR (Mayne Pharma (USA Inc., Paramus, N.J.) at an MTD of 0.5 mg/kg; all agents were administered via tail vein injection. TPT was measured by HPLC UV absorption as described (Thompson, J. et. al., id). Atomic absorption spectrometry of ultrafiltered and nonfiltered samples was used to measure platinum levels (Simpson, A. E. et al., “Transscleral diffusion of carboplatin: an in vitro and in vivo study”, Arch Ophthalmol 120: 1069-74 (2002)). Liquid scintillation was used to measure levels of [H^3]-VCR (70-90 Ci/mmol; PerkinElmer, Wellesley, Mass.). Mice received TPT, CBP, and VCR at a dose and schedule similar to that used to treat children with retinoblastoma (Schouten-Van Meeteren, A. Y. et al., “Overview: chemotherapy for retinoblastoma: an expanding area of clinical research”, Med Pediatr Oncol 38: 428-38 (2002)) or other brain tumors.
To measure retinal and vitreal penetration of TPT, CBP, and VCR, we injected each drug intravenously into 2-wk-old rats; this age corresponded to the stage of treatment in our xenograft model. Drug levels were measured in the vitreous, retina, and plasma at 3 min, 30 min, 1.5 h, 4 h, and 6 h after injection.

Data set [2] relates to retinoblastoma. The following applies: low-dose, frequent versus infrequent, high-dose administration; cited from earlier work.
Data set [3] concerns Y79 retinoblastoma xenograft. The data set can be described thus: Orthotopic retinoblastoma xenograft in eyes of newborn rats. Format: in vivo, rat.
Source text: For some experiments, the retinoblastoma cells were labeled with a GFP transgene to unambiguously establish tumor boundaries.
To establish a baseline prior to chemotherapy treatment in our retinoblastoma xenograft model, we analyzed cell number, survival, proliferation, apoptosis, and gene expression 2 weeks after engraftment. One hour before analysis, the rats received an injection of BrdU to label the cells in the S-phase of the cell cycle, a measure of the fraction of dividing cells. The engrafted cells were microdissected from the normal tissue and dissociated; the total cell number was then scored. Calcein and ethidium bromide were used to measure metabolically active cells and dead cells, respectively. […] The fraction of dividing cells was estimated by staining with an anti-BrdU antibody and scoring the fraction of immunopositive cells. […] To estimate the proportion of cells that had initiated apoptosis, we performed a TUNEL assay.
After one course of treatment, the transplanted retinoblastoma cells were analyzed for viability and proliferation as described above.
The subject of data set [4] is primary human retinoblastoma tumors. The data set can be described thus: Enlarged nuclei in tumors removed from patients following VCR treatment. It is filed as in vivo. The conditions noted are these: human tumors treated with VCR; control primary tumors 4%±1%. From the text:
We were surprised that VCR was not effective at halting retinoblastoma growth in the orthotopic xenograft model because VCR is often combined with other chemotherapeutic agents in the treatment of retinoblastoma in children. It was possible that there was a minor effect of VCR treatment that was masked in our system by the active proliferation and expansion of the xenograft. One of the hallmarks of VCR exposure is a nucleus with twice the genomic DNA content, because VCR blocks cytokinesis without halting cell cycle progression. To test if there was any VCR-mediated block of mitosis, we scored the proportion of large cells with twice the genomic DNA content in cultured cells, xenografts, and tumors removed from patients following VCR treatment. […] The proportion of enlarged nuclei in xenografts and primary human tumors following VCR treatment was similar to control xenografts (3%±2%) and primary tumors (4%±1%), respectively.

Data set [5] concerns retinoblastoma. The following applies: subconjunctival administration; cited from earlier work.
Setting [6] is: 2-wk-old rats, intravenous, 3 min to 6 h.

Consider three compounds from patent US20050086708A1, “Animal models of retinal tumorigenesis” (priority 2003, published 2005).

Structures are written as SMILES.

For orientation: Kp means tissue or fluid exposure divided by exposure in the circulation.

`CC[C@@]1(O)C(=O)OCc2c1cc1n(c2=O)Cc2cc3c(CN(C)C)c(O)ccc3nc2-1` [TPT, topotecan]: the LD50 in the data set on Y79 cells is given as 30 nM; in the data set with Weril cells (Weril cells), 19 nM. In addition, in data set [1], the “cell cycle arrest phase” value is reported as “G2 arrest”. Further, the “proportion of cells arrested in G2 phase (FACS)” value in data set [1] (exposed for 10 min) turned out to be 36%; in data set [1] (exposed for 8 h), 39%. Further, the “exposure sufficient to achieve the maximum reduction in cell survival and proliferation” value in data set [1] (time course experiment) is 15 min. The p53 pathway activation result in the data set on Y79 and Weril cells is given as “activated”. Further, the results for the Kp in “in vivo” (AUC retina/plasma ratio) and in “in vivo” (AUC vitreous/plasma ratio) were 0.7 and 0.38, respectively. Also, in the data set with retinoblastoma [2], the “effect on tumor burden” value was “more effectively reduced the tumor burden”.

In the case of `CC[C@]1(O)C[C@H]2CN(CCc3c([nH]c4ccccc34)[C@@](C(=O)OC)(c3cc4c(cc3OC)N(C=O)[C@H]3[C@@](O)(C(=O)OC)[C@H](OC(C)=O)[C@]5(CC)C=CCN6CC[C@]43[C@@H]65)C2)C1` [VCR, vincristine], the LD50 is on record as 5 nM in the data set with Y79 cells and 3 nM in the data set with Weril cells (Weril cells). For the same compound, in [1], the “exposure time required to kill retinoblastoma cells in culture” value is 4 h. In addition, the “cells with twice their normal DNA content” value in [1] (cultured cells, 5 nM for 8 h) is “Approximately 98%”. In addition, in data set [1] (time course experiment), the “exposure time of maximum decrease in viability” value is 4 h. The Kp was 1 in “in vivo” (AUC retina/plasma ratio) and 1.1 in the data set “in vivo” (AUC vitreous/plasma ratio). For the same compound, in data set [3] (short-term assay, one course of treatment), the “effect on retinoblastoma cell survival” value is reported as “little effect”. The “proportion of enlarged nuclei (cell cycle progression without cytokinesis)” value in [3] (xenografts treated with VCR, control xenografts 3%±2%) is 2%±1%; in data set [4], 5%±1.5%.

Consider `N.N.O=C([O-])C1(C(=O)[O-])CCC1.[Pt+2]` [CBP, carboplatin], for which the LD50 with Y79 cells is 4000 nM; in the data set on Weril cells (Weri1 cells), 5000 nM. For the same compound, in data set [1], the “cell cycle arrest phase” value was “arrested in either the G1 or G2 phase”. In addition, in data set [1] (time course experiment), the “exposure sufficient to achieve the maximum reduction in cell survival and proliferation” value is 15 min. Besides, the p53 pathway activation entry with Y79 and Weril cells was “not activated”. Besides, the AUC retina/plasma ratio in “in vivo” (setting [6]) was 0.03. The AUC vitreous/plasma ratio in “in vivo” (setting [6]) is recorded as 0.59. For the same compound, in data set [3] (2-wk-old rats, after one course of treatment, untreated 2.4±0.6×10^6), the cell number/eye is recorded as 0.79±0.29×10^6 cell number/eye. In addition, the “effect on tumor size” value in the data set with retinoblastoma [5] was “effective at reducing tumor size”.
